Literature values in patent US20070275871A1 (BIOREXIS TECHNOLOGY, INC., priority 2003, published 2007).
pKd: −log10 of the molar value. Like-named read-outs stand apart in the source and are kept apart here.

Assays:
[1] = molecular target: T1, extracellular domain of EPO receptor (Homo sapiens, UniProt P19235)
T1 sequence (P19235 25-250 limits assumed): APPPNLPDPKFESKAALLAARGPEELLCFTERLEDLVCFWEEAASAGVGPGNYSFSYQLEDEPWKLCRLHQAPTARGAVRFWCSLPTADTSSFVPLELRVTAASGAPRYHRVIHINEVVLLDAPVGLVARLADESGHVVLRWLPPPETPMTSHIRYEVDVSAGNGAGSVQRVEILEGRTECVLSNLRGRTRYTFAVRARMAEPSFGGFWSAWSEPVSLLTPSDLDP

[2] = test system: nascent red blood cell production; details: mice, two different in vivo assays of nascent red blood cell production
EPO receptor [3] = molecular target: T2, EPO receptor (Homo sapiens, UniProt P19235)
T2 sequence (P19235 25-508): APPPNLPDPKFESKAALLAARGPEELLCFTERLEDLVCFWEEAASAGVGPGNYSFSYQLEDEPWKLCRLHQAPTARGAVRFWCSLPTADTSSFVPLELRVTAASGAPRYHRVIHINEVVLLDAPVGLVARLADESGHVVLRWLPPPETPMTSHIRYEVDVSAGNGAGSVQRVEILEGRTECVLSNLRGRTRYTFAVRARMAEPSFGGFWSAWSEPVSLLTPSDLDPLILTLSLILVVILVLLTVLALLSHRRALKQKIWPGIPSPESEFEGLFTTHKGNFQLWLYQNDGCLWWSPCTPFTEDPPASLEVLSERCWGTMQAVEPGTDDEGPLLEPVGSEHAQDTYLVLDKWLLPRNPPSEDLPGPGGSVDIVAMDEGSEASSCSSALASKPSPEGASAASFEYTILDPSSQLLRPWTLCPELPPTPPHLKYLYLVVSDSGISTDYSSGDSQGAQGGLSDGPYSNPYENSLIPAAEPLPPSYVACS

[4] = test system: cell lines engineered to be responsive to EPO
EPO receptor [5] = molecular target: T2, EPO receptor; details: N- and C-terminal deletions of EMP-1

GGTYSCHFGPLTWVCKPQGG [EMP-1]
pKd ([1]; read-out: affinity (Kd)): 6.70 | cascade of phosphorylation events and cell cycle progression (EPO responsive cells): induce a similar cascade of phosphorylation events and cell cycle progression | erythropoietic effects [2]: significant erythropoietic effects | competition with EPO in receptor binding assays (EPO receptor [3]): competes with EPO | cellular proliferation [4]: cause cellular proliferation

CRIGPITWVC
pKd ([1]; EPO domain-weak-binding consensus sequence, read-out: Kd): 2.00

YSCHFGPLTWVCK [EMP-20]
activity in the assays for EPO mimetic action (EPO receptor [5]): minimal active peptide
